Assay results: EP4617271A1, “PROTEOLYTIC CHIMERAS FOR THE TREATMENT OF A CANCER RELATED TO CERT” (Consejo Superior De Investigaciones Científicas - CSIC, priority 2024, dated 2025)

What was measured:
MDA-MB-453/Lap cells = assay: Cell viability (MTT), sensitization to lapatinib, MDA-MB-453/Lap; format: cell-based, human; details: 24 h; for sensitization to Lapatinib treatments: Protac 10 µM, lapatinib 3-50 µM, shift of dose response curve vs vehicle; for change in viability: lapatinib 10 µM in the presence of Protac 10 µM; for CC50 vehicle /CC50 Protac ratio: lapatinib CC50 without vs with Protac 10 µM
Experimental: (§1) MDA-MB-231 cells were grown in DMEM media (Sigma) supplemented with 10% fetal bovine serum (FBS) (Sigma), 2 mM L-glutamine (Thermo Fisher) and 100 U/mL penicillin/ 100 ug/mL streptomycin (Thermo Fisher). MDA-MB-453 cells were grown in DMEM/F12 media (Gibco) supplemented with 10% fetal bovine serum (FBS) (Sigma), 2 mM L-glutamine (Thermo Fisher), 2.5 ug/mL amphotericin B and 100 U/mL penicillin/ 100 ug/mL streptomycin (Thermo Fisher). BT-474 cells were grown in DMEM/F12 media (Gibco) supplemented with 10% fetal bovine serum (FBS) (Sigma), 2 mM L-glutamine (Thermo Fisher), 10 ug/mL insulin, 2.5 ug/mL amphotericin B and 100 U/mL penicillin/ 100 ug/mL streptomycin (Thermo Fisher).
(§2) For cell proliferation assays, cells were plated at a density of 10,000 cells/well in a 96-well plate. […] MTT reagent was added to cell culture media. After 3 h incubation, culture medium was replaced by DMSO. MTT formazan crystals were solubilized in DMSO using a plate agitator for 30 min prior to reading absorbance at 570 nm with a SYNERGY H1 microplate reader (BioTek

BT-474/Lap cells = assay: Cell viability (MTT), sensitization to lapatinib, BT-474/Lap; format: cell-based, human; details: 24 h; for sensitization to Lapatinib treatments: Protac 20 µM, lapatinib 0.63-30 µM, shift of dose response curve vs vehicle; for CC50 vehicle /CC50 Protac ratio: lapatinib CC50 without vs with Protac 20 µM
Experimental: as §1, §2

MDA-MB-453/WT cells = assay: Cell viability (MTT), sensitization to lapatinib, MDA-MB-453/WT; format: cell-based, human; details: 24 h; for sensitization to Lapatinib treatments: Protac 10 µM, lapatinib 3-50 µM, shift of dose response curve vs vehicle; for change in viability: lapatinib 10 µM in the presence of Protac 10 µM; for CC50 vehicle /CC50 Protac ratio: lapatinib CC50 without vs with Protac 10 µM
Experimental: as §1, §2

CERT = target: T1, CERT (Homo sapiens, UniProt Q9Y5P4); assay: Degradation of CERT in cultured human breast cancer cells (SDS-PAGE and immunoblot); format: cell-based; details: for degradation of CERT / levels of CERT in cells: 24 h; for degradation of CERT: immunoblot vs DMSO
T1 construct: endogenous in cells; host or cells: MDA-MB-231, MDA-MB-453 (WT and lapatinib-resistant), BT-474 (WT and lapatinib-resistant)
T1 sequence (Q9Y5P4 1-624): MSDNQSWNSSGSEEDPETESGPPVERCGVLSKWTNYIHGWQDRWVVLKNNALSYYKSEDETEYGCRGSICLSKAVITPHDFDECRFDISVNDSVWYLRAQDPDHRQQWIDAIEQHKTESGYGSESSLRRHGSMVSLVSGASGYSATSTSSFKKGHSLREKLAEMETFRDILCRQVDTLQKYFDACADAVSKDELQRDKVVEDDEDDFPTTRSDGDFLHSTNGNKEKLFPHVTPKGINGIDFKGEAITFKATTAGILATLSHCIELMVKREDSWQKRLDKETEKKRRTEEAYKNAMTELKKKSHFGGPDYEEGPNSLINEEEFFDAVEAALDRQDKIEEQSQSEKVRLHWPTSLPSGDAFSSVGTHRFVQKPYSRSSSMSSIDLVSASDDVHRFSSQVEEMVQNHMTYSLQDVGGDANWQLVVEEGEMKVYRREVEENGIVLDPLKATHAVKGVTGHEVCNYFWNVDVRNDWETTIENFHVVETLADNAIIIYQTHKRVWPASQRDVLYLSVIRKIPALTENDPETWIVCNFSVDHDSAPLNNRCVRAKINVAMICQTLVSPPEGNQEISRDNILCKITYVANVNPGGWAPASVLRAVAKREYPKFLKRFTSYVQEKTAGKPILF
Experimental: as §1
Then, medium was removed and cells were washed with PBS, trypsinized and the pellets were disrupted by probe sonication in a 0.25 M solution of Saccharose. An aliquot was used for protein quantification and the same amount of protein per treatment was treated with laemli buffer (95 °C/5 min). The protein extracts were analyzed by SDS-PAGE electrophoresis followed by immunoblot using the following antibodies: CERT1, Abcam Ab72536; USP14, Cell signaling CS-11931; Actin, Abcam Ab5694.
Chimeras were tested in different types of breast cancer cell lines: • MDA-MB-231, lacking the estrogen receptor (ER), progesterone receptor (PR) and human epidermal growth factor receptor-2 (HER2).

BT-474/WT cells = assay: Cell viability (MTT), sensitization to lapatinib, BT-474/WT; format: cell-based, human; details: 24 h; for sensitization to Lapatinib treatments: Protac 20 µM, lapatinib 0.63-30 µM; for CC50 vehicle /CC50 Protac ratio: lapatinib CC50 without vs with Protac 20 µM
Experimental: as §1, §2

[1] = BT-474 (WT) cells, 10 µM, 20 µM per Figure 1 legend
[2] = BT-474/Lap (lapatinib resistant) cells, 1, 5, 10, 20, 30 and 40 µM, immunoblot vs DMSO (Figure 6)
[3] = MDA-MB-453/Lap (lapatinib resistant) cells, 1, 5, 10, 20, 30 and 40 µM, immunoblot vs DMSO (Figure 4)
[4] = MDA-MB-231 cells, 10 µM, time course 2, 4, 6, 8, 16 and 24 h

SMILES | sensitization to Lapatinib treatments (MDA-MB-453/Lap cells) | change in viability (MDA-MB-453/Lap cells) [%] | CC50 vehicle /CC50 Protac ratio (MDA-MB-453/Lap cells) | sensitization to Lapatinib treatments (BT-474/Lap cells) | CC50 vehicle /CC50 Protac ratio (BT-474/Lap cells) | sensitization to Lapatinib treatments (MDA-MB-453/WT cells) | change in viability (MDA-MB-453/WT cells) [%] | CC50 vehicle /CC50 Protac ratio (MDA-MB-453/WT cells) | degradation of CERT (CERT; [1]) | levels of CERT in cells (CERT; [2]) | degradation of CERT (CERT; MDA-MB-231 cells, 10 µM) | degradation of CERT (CERT; MDA-MB-453 (WT) cells, 10 µM) | levels of CERT in cells (CERT; [3]) | sensitization to Lapatinib treatments (BT-474/WT cells) | CC50 vehicle /CC50 Protac ratio (BT-474/WT cells) | time of CERT degradation effect (CERT; [4]) [h] | time of maximum degradation (CERT; [4]) [h]
Cc1cc(C(=O)N2CCC(Cn3cc(CCCCCCCCC(=O)N[C@@H](CO)C[C@H](O)c4ccccc4)nn3)CC2)c(C)n1-c1ccc(F)cc1 [RBM3-395, N-((2R,4S)-1,4-Dihydroxy-4-phenylbutan-2-yl)-9-(1-((1-(1-(4-fluorophenyl)-2,5-dimethyl-1H-pyrrole-3-carbonyl)piperidin-4-yl)methyl)-1H-1,2,3-triazol-4-yl)nonanamide] | potent sensitization | -38 | 2.05 | potent sensitization | 5.23 | Sensitization was also observed, yet mildly | -38 | 2.27 | induced the degradation of CERT | treatments have reduced the levels of CERT in cells | induced the degradation of CERT | induced the degradation of CERT | treatments have reduced the levels of CERT in cells | sensitized cells to lapatinib treatments | 6.22 | – | –
Cc1cc(C(=O)N2CCC(COC(=O)NCCOCCOCCOCCOCCOCCn3cc(CCCCCCCCC(=O)N[C@@H](CO)C[C@H](O)c4ccccc4)nn3)CC2)c(C)n1-c1ccc(F)cc1 [RBM3-419, (1-(1-(4-Fluorophenyl)-2,5-dimethyl-1H-pyrrole-3-carbonyl)piperidin-4-yl)methyl (17-(4-(9-(((2R,4S)-1,4-dihydroxy-4-phenylbutan-2-yl)amino)-9-oxononyl)-1H-1,2,3-triazol-1-yl)-3,6,9,12,15-pentaoxaheptadecyl)carbamate] | – | – | – | – | – | – | – | – | induced the degradation of CERT | treatments have reduced the levels of CERT in cells | induced the degradation of CERT | induced the degradation of CERT | treatments have reduced the levels of CERT in cells | – | – | – | –
Cc1cc(C(=O)N2CCC(COC(=O)NCCOCCOCCOCCn3cc(CCCCCCCCC(=O)N[C@@H](CO)C[C@H](O)c4ccccc4)nn3)CC2)c(C)n1-c1ccc(F)cc1 [RBM3-368] | – | – | – | – | – | – | – | – | induced the degradation of CERT | treatments have reduced the levels of CERT in cells | induced the degradation of CERT | induced the degradation of CERT | treatments have reduced the levels of CERT in cells | – | – | 16 to 24 | 24
Cc1cc(C(=O)N2CCC(COC(=O)NCCOCCOCCn3cc(CCCCCCCCC(=O)N[C@@H](CO)C[C@H](O)c4ccccc4)nn3)CC2)c(C)n1-c1ccc(F)cc1 [RBM3-386, (1-(1-(4-Fluorophenyl)-2,5-dimethyl-1H-pyrrole-3-carbonyl)piperidin-4-yl)methyl (2-(2-(2-(4-(9-(((2R,4S)-1,4-dihydroxy-4-phenylbutan-2-yl)amino)-9-oxononyl)-1H-1,2,3-triazol-1-yl)ethoxy)ethoxy)ethyl) carbamate] | – | – | – | – | – | – | – | – | induced the degradation of CERT | treatments have reduced the levels of CERT in cells | induced the degradation of CERT | induced the degradation of CERT | treatments have reduced the levels of CERT in cells | – | – | – | –
Cc1cc(C(=O)N2CCC(COC(=O)NCCOCCn3cc(CCCCCCCCC(=O)N[C@@H](CO)C[C@H](O)c4ccccc4)nn3)CC2)c(C)n1-c1ccc(F)cc1 [RBM3-413, (1-(1-(4-Fluorophenyl)-2,5-dimethyl-1H-pyrrole-3-carbonyl)piperidin-4-yl)methyl (2-(2-(4-(9-(((2R,4S)-1,4-dihydroxy-4-phenylbutan-2-yl)amino)-9-oxononyl)-1H-1,2,3-triazol-1-yl)ethoxy)ethyl)carbamate] | potent sensitization | -38 | 2.33 | potent sensitization | 5.56 | Sensitization was also observed, yet mildly | -38 | 1.98 | induced the degradation of CERT | treatments have reduced the levels of CERT in cells | induced the degradation of CERT | induced the degradation of CERT | treatments have reduced the levels of CERT in cells | sensitized cells to lapatinib treatments | 3.84 | – | –
